Publication PMC10999543, “Identification of kinase modulators as host-directed therapeutics against intracellular methicillin-resistant Staphylococcus aureus” (Frontiers in Cellular and Infection Microbiology, 2024)
Where two headings read alike, the source gives them in different places.

Columns and labels:
[1] = test system: intracellular MRSA; type: cell-based, Staphylococcus aureus; settings: for %GFP+ rep 1 / z-scoreMRSA+ rep 1: replicate 1; for %GFP+ rep 2 / z-scoreMRSA+ rep 2: replicate 2; for %GFP+ rep 3 / z-scoreMRSA+ rep 3: replicate 3; for z-scoreMRSA+ mean: mean of 3 replicates
How it was run: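 HeLa cells infected with GFP-MRSA (MOI ~6.8), gentamicin-cleared, then incubated overnight at 37°C with inhibitors plus 5 µg/ml gentamicin; DMSO as negative control, triplicates. Flow cytometry gave % GFP-positive cells and cell count (viability surrogate); hits by plate z-score (MRSA ≤ -2, HeLa count ≥ -3).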

[2] = test system: HeLa cells; assay: Compound screen by flow cytometry: HeLa cell count as surrogate readout of cell viability (z-scoreHeLa); type: cell-based, human; settings: for cell count rep 1 / z-scoreHeLa rep 1: replicate 1; for cell count rep 2 / z-scoreHeLa rep 2: replicate 2; for cell count rep 3 / z-scoreHeLa rep 3: replicate 3; for z-scoreHeLa mean: mean of 3 replicates
How it was run: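 HeLa cells were infected with GFP-MRSA (mean MOI 6.8 ± 4.6) for 1 h, and extracellular bacteria were killed with 30 µg/ml gentamicin. Cells were then incubated overnight with kinase inhibitors in 5 µg/ml gentamicin, in triplicate against DMSO controls. Flow-cytometric cell count served as a viability surrogate, expressed as a plate z-score.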

[3] = PKIS compound screen raw data, MRSA-infected HeLa cells
[4] = PKIS compound screen, MRSA-infected HeLa cells
[5] = PKIS compound screen, Yes/No call (effect without cell death)
[6] = PKIS compound screen, Yes/No call on z-scoreMRSA+
[7] = PKIS compound screen raw data, HeLa cell count
[8] = PKIS compound screen, HeLa cell count
[9] = PKIS compound screen, Yes/No call on z-scoreHeLa
[10] = PKIS compound screen, Yes/No call
[11] = PKIS compounds raw data, MRSA-infected HeLa cells
[12] = PKIS compounds raw data, HeLa cell count
[13] = compound screen, MRSA-infected HeLa cells
[14] = compound screen, HeLa cell count

| SMILES | %GFP+ rep 1 [1, 3] [%] | %GFP+ rep 2 [1, 3] [%] | %GFP+ rep 3 [1, 3] [%] | z-scoreMRSA+ mean [1, 4] | z-scoreMRSA+ rep 1 [1, 4] | z-scoreMRSA+ rep 2 [1, 4] | z-scoreMRSA+ rep 3 [1, 4] | hit [1, 5] | effect [1, 6] | cell count rep 1 [2, 7] | cell count rep 2 [2, 7] | cell count rep 3 [2, 7] | z-scoreHeLa mean [2, 8] | z-scoreHeLa rep 1 [2, 8] | z-scoreHeLa rep 2 [2, 8] | z-scoreHeLa rep 3 [2, 8] | cell death [2, 9] | effect [1, 10] | z-scoreMRSA+ mean ([1]; PKIS compound screen) | z-scoreMRSA+ rep 1 ([1]; PKIS compound screen) | also measured |
| --- | --- | --- | --- | --- | --- | --- | --- | --- | --- | --- | --- | --- | --- | --- | --- | --- | --- | --- | --- | --- | --- |
| COc1ccc(Nc2nccc(N3CCC(NC(=O)c4cc5ccccc5s4)C3)n2)cc1 (stereo not shown) [GSK1379738A] | 23.4 | 24.0 | 25.7 | 1.73 | 1.76 | 1.65 | 1.80 | No | No | 35022 | 33049 | 42431 | 0.75 | 2.26 | -0.32 | 0.30 | No |  |  |  |  |
| COc1ccc(Nc2nccc(N3CCC(NC(=O)Nc4cccc(OC)c4)C3)n2)cc1 (stereo not shown) [GSK1379742A] | 17.9 | 19.2 | 19.1 | 0.00235 | 0.0133 | 0.20 | -0.21 | No | No | 25651 | 33132 | 39377 | 0.12 | 0.84 | -0.31 | -0.18 | No | No | 0.33 | -0.05 | z-scoreMRSA+ rep 2 ([1]; PKIS compound screen): 0.88; z-scoreMRSA+ rep 3 ([1]; PKIS compound screen): 0.15; %GFP+ rep 1 [1, 11]: 26.8%; %GFP+ rep 2 [1, 11]: 30.6%; %GFP+ rep 3 [1, 11]: 28.1%; cell death [2, 10]: No; z-scoreHeLa mean ([2]; PKIS compound screen): 1.53; z-scoreHeLa rep 1 ([2]; PKIS compound screen): 1.56; z-scoreHeLa rep 2 ([2]; PKIS compound screen): 0.68; z-scoreHeLa rep 3 ([2]; PKIS compound screen): 2.36; cell count rep 1 [2, 12]: 8641; cell count rep 2 [2, 12]: 7027; cell count rep 3 [2, 12]: 9326 |
| COC(=O)c1cccc(NC(=O)NC2CCN(c3ccnc(Nc4ccc(OC)cc4)n3)C2)c1 (stereo not shown) [GSK1379746A] | 19.0 | 17.4 | 21.2 | -0.17 | 0.06 | -0.55 | -0.01 | No | No | 24857 | 18367 | 14326 | -0.99 | -0.90 | -1.18 | -0.90 | No | No | -0.13 | -0.05 | z-scoreMRSA+ rep 2 ([1]; PKIS compound screen): -0.0265; z-scoreMRSA+ rep 3 ([1]; PKIS compound screen): -0.31; %GFP+ rep 1 [1, 11]: 26.8%; %GFP+ rep 2 [1, 11]: 25.9%; %GFP+ rep 3 [1, 11]: 25.6%; cell death [2, 10]: No; z-scoreHeLa mean ([2]; PKIS compound screen): -0.86; z-scoreHeLa rep 1 ([2]; PKIS compound screen): -1.12; z-scoreHeLa rep 2 ([2]; PKIS compound screen): -1.01; z-scoreHeLa rep 3 ([2]; PKIS compound screen): -0.44; cell count rep 1 [2, 12]: 4181; cell count rep 2 [2, 12]: 4486; cell count rep 3 [2, 12]: 4898 |
| COc1ccc(CNC(=O)NC2CCN(c3ccnc(Nc4cc(OC)c(OC)c(OC)c4)n3)C2)cc1 (stereo not shown) [GSK1379748A] | 25.5 | 23.4 | 23.0 |  |  |  |  |  |  | 5560 | 4556 | 5664 |  |  |  |  |  |  |  |  | effect ([1]; Yes/No call from z-scoreMRSA+): No; hit ([1]; Yes/No: effect without cell death): No; z-scoreMRSA+ mean [1, 13]: 0.16; z-scoreMRSA+ rep 1 [1, 13]: 0.05; z-scoreMRSA+ rep 2 [1, 13]: 0.19; z-scoreMRSA+ rep 3 [1, 13]: 0.24; cell death ([2]; Yes/No call from z-scoreHeLa): No; z-scoreHeLa mean [2, 14]: 0.45; z-scoreHeLa rep 1 [2, 14]: 0.87; z-scoreHeLa rep 2 [2, 14]: 0.20; z-scoreHeLa rep 3 [2, 14]: 0.27 |
| COc1cc(Nc2nccc(N3CCC(NC(=O)Nc4cccc(C(C)=O)c4)C3)n2)cc(OC)c1OC (stereo not shown) [GSK1379753A] | 19.3 | 19.5 | 18.4 | -0.20 | 0.14 | 0.025 | -0.77 | No | No | 28035 | 28667 | 17453 | -0.0237 | -0.37 | 0.58 | -0.29 | No |  |  |  |  |
| COc1cc(Nc2nccc(N3CCC(NC(=O)C(C)c4ccc(Cl)cc4)C3)n2)cc(OC)c1OC (stereo not shown) [GSK1379757A] | 24.2 | 23.0 | 24.9 | 1.14 | 1.45 | 0.98 | 1.00 | No | No | 34106 | 27085 | 22729 | 0.57 | 0.66 | 0.31 | 0.74 | No | No | 0.73 | 0.77 | z-scoreMRSA+ rep 2 ([1]; PKIS compound screen): 0.76; z-scoreMRSA+ rep 3 ([1]; PKIS compound screen): 0.65; %GFP+ rep 1 [1, 11]: 31.0%; %GFP+ rep 2 [1, 11]: 30.0%; %GFP+ rep 3 [1, 11]: 30.8%; cell death [2, 10]: No; z-scoreHeLa mean ([2]; PKIS compound screen): 0.21; z-scoreHeLa rep 1 ([2]; PKIS compound screen): 0.06; z-scoreHeLa rep 2 ([2]; PKIS compound screen): 0.29; z-scoreHeLa rep 3 ([2]; PKIS compound screen): 0.29; cell count rep 1 [2, 12]: 6143; cell count rep 2 [2, 12]: 6440; cell count rep 3 [2, 12]: 6051 |
| COc1cc(Nc2nccc(N3CCC(NC(=O)c4cc5ccccc5s4)C3)n2)cc(OC)c1OC (stereo not shown) [GSK1379760A] | 16.3 | 17.7 | 19.1 | -0.32 | -0.49 | -0.25 | -0.21 | No | No | 31010 | 36298 | 43524 | 0.80 | 1.65 | 0.28 | 0.48 | No |  |  |  |  |
| COc1cccc(NC(=O)NC2CCN(c3ccnc(Nc4cc(OC)c(OC)c(OC)c4)n3)C2)c1 (stereo not shown) [GSK1379763A] | 13.0 | 15.3 | 16.3 | -1.34 | -1.54 | -1.12 | -1.35 | No | No | 25281 | 24740 | 24420 | 0.05 | -0.83 | -0.09 | 1.07 | No |  |  |  |  |
| COc1cc(Nc2nccc(N3CCC(NC(=O)Nc4ccc5c(c4)OCO5)C3)n2)cc(OC)c1OC (stereo not shown) [GSK1379766A] | 17.4 | 18.6 | 19.8 | -0.04 | -0.15 | 0.0226 | 0.00377 | No | No | 25836 | 29727 | 37841 | -0.17 | 0.87 | -0.94 | -0.43 | No | No | 0.27 | 0.18 | z-scoreMRSA+ rep 2 ([1]; PKIS compound screen): 0.32; z-scoreMRSA+ rep 3 ([1]; PKIS compound screen): 0.30; %GFP+ rep 1 [1, 11]: 28.0%; %GFP+ rep 2 [1, 11]: 27.7%; %GFP+ rep 3 [1, 11]: 28.9%; cell death [2, 10]: No; z-scoreHeLa mean ([2]; PKIS compound screen): 0.15; z-scoreHeLa rep 1 ([2]; PKIS compound screen): 0.05; z-scoreHeLa rep 2 ([2]; PKIS compound screen): -0.13; z-scoreHeLa rep 3 ([2]; PKIS compound screen): 0.53; cell count rep 1 [2, 12]: 6133; cell count rep 2 [2, 12]: 5809; cell count rep 3 [2, 12]: 6429 |
